{"source": "patent US6855804B2", "about": "“Covalently reactive transition state analogs and methods of use thereof” (Board of Regents, The University of Texas System, priority 1998, dated 2005)", "key": {"[1]": {"target": "trypsin (porcine, type IX) (Sus scrofa, UniProt P00761)", "sequence (P00761 9-231)": "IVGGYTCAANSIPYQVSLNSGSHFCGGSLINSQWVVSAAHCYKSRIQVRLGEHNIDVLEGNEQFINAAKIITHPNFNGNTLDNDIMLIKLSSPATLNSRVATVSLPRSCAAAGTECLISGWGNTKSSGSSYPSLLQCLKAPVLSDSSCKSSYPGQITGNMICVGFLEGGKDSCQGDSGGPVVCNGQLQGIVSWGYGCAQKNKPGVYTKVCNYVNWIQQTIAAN", "assay": "biochemical", "format": "biochemical"}, "trypsin": {"target": "trypsin (Sus scrofa, UniProt P00761)", "sequence (P00761 9-231)": "as above", "format": "binding, porcine"}, "Fv YZ17 [2]": {"test_system": "Fv YZ17", "format": "binding, mouse"}, "L chain clone SK35": {"test_system": "L chain clone SK35", "format": "binding"}, "L chain clone c23.5": {"test_system": "L chain clone c23.5", "format": "binding"}, "Fv YZ17 [3]": {"test_system": "Fv YZ17", "format": "biochemical, mouse"}, "L chain GG63": {"target": "L chain GG63 (Homo sapiens, UniProt P01834)", "assay": "Inhibition of L chain GG63 catalysed PFR-MCA cleavage"}, "[4]": {"test_system": "VIPase antibody fragments", "format": "biochemical"}, "L chain c23.5 [5]": {"test_system": "L chain c23.5", "format": "biochemical"}, "L chain hk14 [6]": {"test_system": "L chain hk14", "format": "biochemical"}, "Fv mRT3": {"test_system": "Fv mRT3", "format": "biochemical"}, "L chain U16 [7]": {"test_system": "L chain U16", "format": "biochemical, mouse"}, "L chain c23.5 [8]": {"test_system": "L chain c23.5", "format": "binding"}, "L chain hk14 [9]": {"test_system": "L chain hk14", "format": "binding"}, "L chain U16 [10]": {"test_system": "L chain U16", "format": "binding, mouse"}, "Thrombin (human, a)": {"target": "Thrombin (human, a) (Homo sapiens, UniProt P00734)", "format": "biochemical"}}, "note": "pKi: −log10 of the molar value. Non-standard residues stand in square brackets, D forms with d. Residues, ends and D or L forms follow the SMILES beside them. *: point of attachment. Sta = CC(C)C[C@H](N)[C@@H](O)CC(=O)O; Isovaleryl = CC(C)CC(=O)*"}
{"molecule": "N=C(N)c1ccc(C(NC(=O)CCSSCCC(=O)NCCNC(=O)CCCCC2SCC3NC(=O)NC32)P(=O)(Oc2ccccc2)Oc2ccccc2)cc1", "note": "(stereo not shown) [Compound 5, Diphenyl-N-[2-(biotinamido)ethylamido-3,3′-dithiodipropionyl]amino(4-amidinophenyl)methanephosphonate]", "values": [{"measurement": "kapp/[I]", "setting": "[1]", "value": 0.23, "unit": "M⁻¹ s⁻¹"}, {"measurement": "trypsin activity level following gel filtration", "setting": "[1]", "value": "5.0±0.1", "unit": "FU/h"}, {"measurement": "trypsin activity level without removal of phosphonate", "setting": "[1]", "value": "6.5±0.2", "unit": "FU/h"}, {"measurement": "covalent labeling of trypsin (adducts after denaturing treatment)", "setting": "trypsin", "value": "labeled"}]}
{"molecule": "N=C(N)c1ccc(C(NC(=O)CCCCCNC(=O)CCCC[C@@H]2SC[C@@H]3NC(=O)N[C@@H]32)P(=O)(O)Oc2ccccc2)cc1", "note": "(stereo partly shown) [Compound 4, Monophenyl N-[6-(biotinamido)hexanoyl]amino(4-amidinophenyl)methanephosphonate]", "values": [{"measurement": "stable adduct formation with Fv YZ17", "setting": "Fv YZ17 [2]", "value": "adducts stable to denaturing treatments were observed"}, {"measurement": "stable adduct formation with L chain SK35", "setting": "L chain clone SK35", "value": "adducts stable to denaturing treatments were observed"}, {"measurement": "stable adduct formation with L chain c23.5", "setting": "L chain clone c23.5", "value": "failed to form stable 4-adduct"}]}
{"molecule": "NC(=O)CI", "note": "[Iodoacetamide, iodoacetamide]", "values": [{"measurement": "Inhibition, % Iodoacetamide", "setting": "Fv YZ17 [3]", "value": 4.4, "unit": "%"}, {"measurement": "Inhibition, % Iodoacetamide", "setting": "L chain GG63", "value": 5.8, "unit": "%"}]}
{"molecule": "CC(C)CC(=O)N[C@H](C(=O)N[C@H](C(=O)N[C@@H](CC(C)C)[C@@H](O)CC(=O)N[C@@H](C)C(=O)N[C@@H](CC(C)C)[C@@H](O)CC(=O)O)C(C)C)C(C)C", "note": "[Pepstatin A, pepstatin A] (Isovaleryl-VV[Sta]A[Sta]-OH)", "values": [{"measurement": "Inhibition, % Pepstatin A", "setting": "Fv YZ17 [3]", "value": "1.2 (2.9) %"}, {"measurement": "Inhibition, % Pepstatin A", "setting": "L chain GG63", "value": "0.2 (1.3) %"}]}
{"molecule": "N=C(N)c1ccc(C(NC(=O)OCc2ccccc2)P(=O)(O)Oc2ccccc2)cc1", "note": "(stereo not shown) [Compound 2, Monophenyl N-(benzyloxycarbonyl)amino(4-amidinophenyl)methanephosphonate]", "values": [{"measurement": "pKi", "setting": "[1]", "value": 2.28}, {"measurement": "kinact/KI", "setting": "[1]; read-out: k2/Ki", "value": 1.5, "unit": "M⁻¹ s⁻¹"}]}
{"molecule": "phenylphosphonate 4-nitrophenyl [N-(6-biotinylhexanediamin-1-yl)carboxymethyl]tropan-3-ol diester [diester II]", "values": [{"measurement": "irreversibility of peptidase inhibition after removal of free inhibitor by gel filtration", "setting": "[4]", "value": "did not restore the catalytic activity"}, {"measurement": "inhibition of cleavage of PFR-MCA", "setting": "L chain c23.5 [5]", "value": 83, "unit": "%"}, {"measurement": "inhibition of cleavage of PFR-MCA", "setting": "L chain hk14 [6]", "value": 71, "unit": "%"}, {"measurement": "inhibition of cleavage of PFR-MCA", "setting": "Fv mRT3", "value": 92, "unit": "%"}, {"measurement": "inhibition of cleavage of PFR-MCA", "setting": "L chain U16 [7]", "value": 79, "unit": "%"}, {"measurement": "II labeling of monomer L chain, % of the Fv level", "setting": "L chain c23.5 [8]", "value": 18, "unit": "%"}, {"measurement": "II labeling of monomer L chain, % of the Fv level", "setting": "L chain hk14 [9]", "value": 33, "unit": "%"}, {"measurement": "II labeling of monomer L chain, % of the Fv level", "setting": "L chain U16 [10]", "value": 51, "unit": "%"}]}
{"molecule": "N=C(N)c1ccc(C(NC(=O)OCc2ccccc2)P(=O)(Oc2ccccc2)Oc2ccccc2)cc1", "note": "(stereo not shown) [Compound 1, Diphenyl N-(benzyloxycarbonyl)amino(4-amidinophenyl)methanephosphonate, reference compound]", "values": [{"measurement": "k2, first-order rate constant for formation of covalent adduct", "setting": "[1]", "value": 2.0, "unit": "min⁻¹"}, {"measurement": "kapp/[I]", "setting": "[1]", "value": 3703, "unit": "M⁻¹ s⁻¹"}, {"measurement": "ΔG of noncovalent enzyme-inhibitor interactions (ΔG=−RTlnKi)", "setting": "[1]", "value": 7.3, "unit": "kcal/mol"}]}
{"molecule": "N=C(N)c1ccc(C(NC(=O)CCSSCCC(=O)NCCNC(=O)CCCCC2SCC3NC(=O)NC32)P(=O)(O)Oc2ccccc2)cc1", "note": "(stereo not shown) [Compound 3, Monophenyl-N-[2-(biotinamido)ethylamido-3,3′-dithiodipropionyl]amino(4-amidinophenyl)methanephosphonate]", "values": [{"measurement": "inhibition of trypsin activity after pretreatment and dilution", "setting": "[1]", "value": 85, "unit": "%"}, {"measurement": "inhibition of trypsin without pretreatment", "setting": "[1]", "value": "no inhibition"}, {"measurement": "inhibition of trypsin-catalyzed EAR-MCA hydrolysis", "setting": "[1]", "value": "9.9-80%"}, {"measurement": "irreversibility of trypsin inhibition", "setting": "[1]", "value": "irreversible"}, {"measurement": "k3, first-order rate constant for decomposition of Ei-I", "setting": "[1]", "value": "~0"}, {"measurement": "trypsin activity level following gel filtration", "setting": "[1]", "value": "27.6±2.6", "unit": "FU/h"}, {"measurement": "trypsin activity level without removal of phosphonate", "setting": "[1]", "value": "33.2±2.6", "unit": "FU/h"}, {"measurement": "trypsin activity of adduct isolated by gel filtration after incubation in buffer", "setting": "[1]", "value": "50.2±7.0", "unit": "FU/h"}, {"measurement": "covalent labeling of trypsin (adducts after denaturing treatment)", "setting": "trypsin", "value": "labeled"}, {"measurement": "irreversible inhibition of thrombin activity", "setting": "Thrombin (human, a)", "value": "inhibition of activity despite dilution"}, {"measurement": "irreversible inhibition of YZ17 activity", "setting": "Fv YZ17 [3]", "value": "inhibition of activity despite dilution"}]}
{"molecule": "c1cnc2c(c1)ccc1cccnc12", "note": "[Phenanthroline, phenanthroline]", "values": [{"measurement": "Inhibition, % Phenanthroline", "setting": "Fv YZ17 [3]", "value": 0.2, "unit": "%"}, {"measurement": "inhibition at 10000 µM", "setting": "L chain GG63; read-out: Inhibition, % Phenanthroline", "value": 0.6, "unit": "%"}]}
